The target of data set [1] is T1, Activated CDC42 kinase 1 (Homo sapiens, UniProt Q07912).
Target sequence in this assay (Q07912 whole entry): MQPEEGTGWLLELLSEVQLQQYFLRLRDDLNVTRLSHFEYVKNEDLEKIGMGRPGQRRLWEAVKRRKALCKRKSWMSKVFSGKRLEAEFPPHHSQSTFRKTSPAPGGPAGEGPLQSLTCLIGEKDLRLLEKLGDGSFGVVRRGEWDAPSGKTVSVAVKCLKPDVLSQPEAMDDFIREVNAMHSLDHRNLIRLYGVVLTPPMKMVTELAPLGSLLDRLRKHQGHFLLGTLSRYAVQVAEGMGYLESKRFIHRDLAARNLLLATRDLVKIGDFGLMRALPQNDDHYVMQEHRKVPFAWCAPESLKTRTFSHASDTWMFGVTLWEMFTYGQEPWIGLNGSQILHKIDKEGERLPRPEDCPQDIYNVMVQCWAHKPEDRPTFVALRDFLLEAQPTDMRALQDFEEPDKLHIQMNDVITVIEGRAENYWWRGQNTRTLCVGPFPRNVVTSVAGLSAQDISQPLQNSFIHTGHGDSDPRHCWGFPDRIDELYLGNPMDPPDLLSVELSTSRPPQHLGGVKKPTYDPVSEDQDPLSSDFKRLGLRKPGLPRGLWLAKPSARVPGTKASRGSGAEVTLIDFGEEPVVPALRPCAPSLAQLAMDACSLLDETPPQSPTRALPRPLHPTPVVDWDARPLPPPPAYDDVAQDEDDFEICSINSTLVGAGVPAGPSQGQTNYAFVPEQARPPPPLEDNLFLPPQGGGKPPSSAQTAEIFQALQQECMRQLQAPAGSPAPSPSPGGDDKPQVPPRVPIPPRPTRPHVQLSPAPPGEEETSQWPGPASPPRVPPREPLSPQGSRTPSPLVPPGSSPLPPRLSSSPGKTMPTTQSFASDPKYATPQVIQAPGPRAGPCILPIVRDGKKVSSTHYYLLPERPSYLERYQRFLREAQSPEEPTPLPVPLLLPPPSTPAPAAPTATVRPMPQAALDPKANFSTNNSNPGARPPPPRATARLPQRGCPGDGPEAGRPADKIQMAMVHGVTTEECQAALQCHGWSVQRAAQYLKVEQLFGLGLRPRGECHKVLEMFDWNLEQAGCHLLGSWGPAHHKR
The target in data set [2] is Cytochrome P450 3A4 (Homo sapiens, UniProt P08684). The data set is described as follows: Inhibition of CYP3A4 (unknown origin). It is filed as ADME.
Data set [3] concerns the target Tyrosine-protein kinase Blk (Homo sapiens) (UniProt P51451). The data set is described as follows: Inhibition of BLK (unknown origin) at 1 uM.
Data set [4] in a line: Cmax in mouse at 20 mg/kg, po. Format: ADME, organism-based. The arrangement: dose 20 mg/kg, route oral. Conditions: in vivo.
Data set [5] has as its target Tyrosine-protein kinase FRK (Homo sapiens) (UniProt P42685). Nature of the data set: Inhibition of FRK (unknown origin) at 1 uM.
The nature of data set [6]: Half life in mouse at 20 mg/kg, po. Format: ADME, organism-based. The settings on record: in vivo. Set-up: dose 20 mg/kg, route oral.
Data set [7] concerns the target Tyrosine-protein kinase Fyn (Homo sapiens) (UniProt P06241). The data set is described as follows: Inhibition of FYN (unknown origin) at 1 uM.
Data set [8] has as its target T2, Cytochrome P450 1A2 (Homo sapiens, UniProt P05177).
T2 sequence (P05177 whole entry): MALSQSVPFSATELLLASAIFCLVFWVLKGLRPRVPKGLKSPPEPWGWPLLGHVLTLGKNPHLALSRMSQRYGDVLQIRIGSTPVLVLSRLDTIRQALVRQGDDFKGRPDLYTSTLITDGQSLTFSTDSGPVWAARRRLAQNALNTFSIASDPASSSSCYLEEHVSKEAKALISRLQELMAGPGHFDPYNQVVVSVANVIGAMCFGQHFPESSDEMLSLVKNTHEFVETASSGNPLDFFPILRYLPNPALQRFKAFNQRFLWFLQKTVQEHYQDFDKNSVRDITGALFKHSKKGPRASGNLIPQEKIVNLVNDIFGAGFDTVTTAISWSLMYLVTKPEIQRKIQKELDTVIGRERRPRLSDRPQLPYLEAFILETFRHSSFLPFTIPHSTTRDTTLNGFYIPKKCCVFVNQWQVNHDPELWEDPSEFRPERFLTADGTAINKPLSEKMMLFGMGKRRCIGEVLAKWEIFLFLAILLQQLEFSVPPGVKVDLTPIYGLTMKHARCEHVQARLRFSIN
Nature of the data set: Inhibition of CYP1A2 (unknown origin). Format: ADME.

For data set [9], the target named is Tyrosine-protein kinase HCK (Homo sapiens) (UniProt P08631). The data set is described as follows: Inhibition of HCK (unknown origin) at 1 uM.
The target of data set [10] is T3, Tyrosine-protein kinase TXK (Homo sapiens) (UniProt P42681).
T3 sequence (whole entry): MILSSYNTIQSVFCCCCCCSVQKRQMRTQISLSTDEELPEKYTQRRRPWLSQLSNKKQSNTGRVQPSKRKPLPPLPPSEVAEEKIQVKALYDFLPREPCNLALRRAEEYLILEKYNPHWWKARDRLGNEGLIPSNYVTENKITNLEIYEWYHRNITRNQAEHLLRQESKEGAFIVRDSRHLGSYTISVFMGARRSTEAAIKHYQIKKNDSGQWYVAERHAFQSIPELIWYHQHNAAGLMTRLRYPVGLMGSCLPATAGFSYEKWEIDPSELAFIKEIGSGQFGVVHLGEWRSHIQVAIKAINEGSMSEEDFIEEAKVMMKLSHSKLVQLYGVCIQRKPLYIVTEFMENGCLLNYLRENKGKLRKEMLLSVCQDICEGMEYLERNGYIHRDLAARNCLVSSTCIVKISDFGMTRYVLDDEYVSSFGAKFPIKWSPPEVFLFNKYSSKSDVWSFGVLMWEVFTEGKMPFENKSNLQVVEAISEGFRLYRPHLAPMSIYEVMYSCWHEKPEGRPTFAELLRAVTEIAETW
Nature of the data set: Inhibition of TXK (unknown origin) at 1 uM.

Data set [11] concerns the target Proto-oncogene tyrosine-protein kinase Src (Homo sapiens) (UniProt P12931). The data set is described as follows: Inhibition of SRC (unknown origin) at 1 uM.
The target of data set [12] is T1, Activated CDC42 kinase 1. The settings on record: 1 uM.
Target sequence in this assay (Q07912 whole entry, looked up): as the sequence (Q07912 whole entry) above
In data set [13] the target is Cytochrome P450 2C9 (Homo sapiens, UniProt P11712). Nature of the data set: Inhibition of CYP2C9 (unknown origin). Format: ADME.
Data set [14] in a line: Permeability of the compound by PAMPA at pH 5. It is filed as ADME. Conditions: read-out: permeability. On the technique in general: The PAMPA barrier holds no transporters, so it reflects passive diffusion.
The target of data set [15] is T4, Tyrosine-protein kinase Tec (Homo sapiens) (UniProt P42680).
T4 sequence (whole entry): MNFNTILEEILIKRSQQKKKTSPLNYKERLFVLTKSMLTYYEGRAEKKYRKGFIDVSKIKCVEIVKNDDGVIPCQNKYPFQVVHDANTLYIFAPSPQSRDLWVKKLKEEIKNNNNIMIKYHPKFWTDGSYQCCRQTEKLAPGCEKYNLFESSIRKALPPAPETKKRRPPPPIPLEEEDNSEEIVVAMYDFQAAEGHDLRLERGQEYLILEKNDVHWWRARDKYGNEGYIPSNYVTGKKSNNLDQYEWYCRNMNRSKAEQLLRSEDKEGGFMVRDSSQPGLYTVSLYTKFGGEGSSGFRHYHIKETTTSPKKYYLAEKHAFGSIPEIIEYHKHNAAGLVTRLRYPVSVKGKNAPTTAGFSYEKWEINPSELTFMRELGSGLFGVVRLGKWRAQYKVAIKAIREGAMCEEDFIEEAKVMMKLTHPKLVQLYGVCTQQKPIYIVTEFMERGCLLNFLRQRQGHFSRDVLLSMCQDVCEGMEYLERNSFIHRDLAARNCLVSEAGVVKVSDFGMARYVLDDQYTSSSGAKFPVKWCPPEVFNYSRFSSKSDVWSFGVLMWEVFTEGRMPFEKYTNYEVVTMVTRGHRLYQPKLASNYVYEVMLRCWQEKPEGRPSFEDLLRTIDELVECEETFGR
The data set is described as follows: Inhibition of TEC (unknown origin) at 1 uM.

Data set [16] in a line: (§1) Oral bioavailability in mouse at 20 mg/kg. Conditions: in vivo. It is filed as ADME, organism-based.
Data set [17] has as its target Tyrosine-protein kinase Srms (Homo sapiens) (UniProt Q9H3Y6). Nature of the data set: Inhibition of SRMS (unknown origin) at 1 uM.
Data set [18] is described as follows: AUC in mouse at 20 mg/kg, po. Format: ADME, organism-based. The arrangement: dose 20 mg/kg, route oral. The settings on record: plasma.
A short description of data set [19]: Volume of distribution at steady state in mouse at 2 mg/kg, iv. It is filed as ADME, organism-based. Set-up: dose 2 mg/kg, route intravenous. The settings on record: in vivo, read-out: Vdss.
For data set [20], the target named is Tyrosine-protein kinase Lyn (Homo sapiens) (UniProt P07948). Nature of the data set: Inhibition of LYNB (unknown origin) at 1 uM.
Data set [21] is described as follows: Clearance in mouse at 2 mg/kg, iv. It is filed as ADME, organism-based. Set-up: dose 2 mg/kg, route intravenous. The settings on record: in vivo.
The target of data set [22] is Tyrosine-protein kinase Fgr (Homo sapiens) (UniProt P09769). Nature of the data set: Inhibition of FGR (unknown origin) at 1 uM.
For data set [23], the target named is Tyrosine-protein kinase Lck (Homo sapiens) (UniProt P06239). Nature of the data set: Inhibition of LCK (unknown origin) at 1 uM.
Data set [24] has as its target Tyrosine-protein kinase Yes (Homo sapiens) (UniProt P07947). The data set is described as follows: Inhibition of YES (unknown origin) at 1 uM.
Data set [25] in a line: Aqueous solubility of the compound at pH 7.4. Format: physicochemical.
Data set [26] addresses Cytochrome P450 2D6 (Homo sapiens, UniProt P10635). The data set is described as follows: Inhibition of CYP2D6 (unknown origin). Format: ADME.
Data set [27] is described as follows: Permeability of the compound by PAMPA at pH 7.4. It is filed as ADME. Conditions: read-out: permeability.
Data set [28] addresses T1, Activated CDC42 kinase 1. The source holds these as a separate data set.
Target sequence in this assay (Q07912 whole entry): as the sequence (Q07912 whole entry) above
Data set [29] has as its system Mus musculus. Described as §1. Format: ADME, organism-based. Conditions: in vivo.

Results on 10 compounds are retold here after ChEMBL document CHEMBL2321683, “Discovery of potent, selective and orally bioavailable imidazo[1,5-a]pyrazine derived ACK1 inhibitors” (Bioorg Med Chem Lett, 2013).

Molecules are shown by their SMILES. pIC50: −log10 of the molar value.

Tyrosine-protein kinase Fyn (Homo sapiens), sequence (P06241 2-537 limits assumed): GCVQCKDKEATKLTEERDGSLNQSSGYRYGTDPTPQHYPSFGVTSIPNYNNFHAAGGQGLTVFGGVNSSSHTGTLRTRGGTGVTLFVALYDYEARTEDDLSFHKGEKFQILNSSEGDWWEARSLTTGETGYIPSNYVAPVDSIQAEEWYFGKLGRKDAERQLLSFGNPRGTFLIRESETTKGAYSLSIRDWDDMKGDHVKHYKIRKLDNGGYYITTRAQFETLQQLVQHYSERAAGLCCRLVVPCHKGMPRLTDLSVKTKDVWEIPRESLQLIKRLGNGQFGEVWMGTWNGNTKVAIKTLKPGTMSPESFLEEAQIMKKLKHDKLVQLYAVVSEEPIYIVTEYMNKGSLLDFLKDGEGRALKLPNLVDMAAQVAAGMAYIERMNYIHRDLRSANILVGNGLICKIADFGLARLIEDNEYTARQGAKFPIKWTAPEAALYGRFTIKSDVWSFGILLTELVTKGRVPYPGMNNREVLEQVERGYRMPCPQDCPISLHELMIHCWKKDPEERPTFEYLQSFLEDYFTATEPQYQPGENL
Tyrosine-protein kinase Fgr (Homo sapiens), sequence (P09769 2-529 limits assumed): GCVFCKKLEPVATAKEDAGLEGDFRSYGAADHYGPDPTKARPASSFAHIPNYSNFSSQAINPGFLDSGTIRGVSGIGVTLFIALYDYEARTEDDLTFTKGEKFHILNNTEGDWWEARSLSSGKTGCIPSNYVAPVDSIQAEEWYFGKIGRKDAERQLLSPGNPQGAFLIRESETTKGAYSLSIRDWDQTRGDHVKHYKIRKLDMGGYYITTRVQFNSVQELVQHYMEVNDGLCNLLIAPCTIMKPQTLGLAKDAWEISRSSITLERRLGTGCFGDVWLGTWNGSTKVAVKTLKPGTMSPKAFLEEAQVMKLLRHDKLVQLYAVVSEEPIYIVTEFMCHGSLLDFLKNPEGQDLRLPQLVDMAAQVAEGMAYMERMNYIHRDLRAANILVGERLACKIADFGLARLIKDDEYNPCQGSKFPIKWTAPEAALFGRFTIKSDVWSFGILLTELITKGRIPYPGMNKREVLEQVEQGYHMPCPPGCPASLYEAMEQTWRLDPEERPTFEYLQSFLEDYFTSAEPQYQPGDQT
Tyrosine-protein kinase FRK (Homo sapiens), sequence (P42685 whole entry): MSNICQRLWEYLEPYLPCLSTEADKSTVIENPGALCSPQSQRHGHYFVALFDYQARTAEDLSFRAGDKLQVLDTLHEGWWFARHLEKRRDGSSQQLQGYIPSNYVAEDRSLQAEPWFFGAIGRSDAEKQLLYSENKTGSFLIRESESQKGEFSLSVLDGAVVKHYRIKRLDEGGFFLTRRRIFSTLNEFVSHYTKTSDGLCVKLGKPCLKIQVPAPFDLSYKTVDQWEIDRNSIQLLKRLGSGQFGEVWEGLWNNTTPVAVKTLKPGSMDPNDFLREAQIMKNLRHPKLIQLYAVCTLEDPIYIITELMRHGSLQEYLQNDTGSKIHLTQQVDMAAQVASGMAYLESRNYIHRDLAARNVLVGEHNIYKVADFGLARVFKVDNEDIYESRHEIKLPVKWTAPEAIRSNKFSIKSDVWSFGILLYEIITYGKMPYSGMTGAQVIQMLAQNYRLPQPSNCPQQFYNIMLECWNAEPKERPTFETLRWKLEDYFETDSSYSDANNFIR
Proto-oncogene tyrosine-protein kinase Src (Homo sapiens), sequence (P12931 2-536 limits assumed): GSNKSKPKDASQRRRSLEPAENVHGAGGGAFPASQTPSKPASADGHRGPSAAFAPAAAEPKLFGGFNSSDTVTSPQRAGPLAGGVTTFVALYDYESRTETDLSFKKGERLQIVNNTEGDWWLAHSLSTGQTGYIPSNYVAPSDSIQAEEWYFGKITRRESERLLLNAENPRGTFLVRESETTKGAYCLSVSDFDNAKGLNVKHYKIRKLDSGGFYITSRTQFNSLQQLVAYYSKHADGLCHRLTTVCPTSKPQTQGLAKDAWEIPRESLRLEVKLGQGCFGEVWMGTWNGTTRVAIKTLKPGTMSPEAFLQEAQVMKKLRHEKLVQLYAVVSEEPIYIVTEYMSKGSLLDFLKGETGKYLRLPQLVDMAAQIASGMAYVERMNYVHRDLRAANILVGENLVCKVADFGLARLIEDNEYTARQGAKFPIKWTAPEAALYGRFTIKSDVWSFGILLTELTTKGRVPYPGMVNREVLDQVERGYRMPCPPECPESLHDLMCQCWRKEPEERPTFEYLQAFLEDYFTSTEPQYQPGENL
Tyrosine-protein kinase HCK (Homo sapiens), sequence (P08631 2-526 limits assumed): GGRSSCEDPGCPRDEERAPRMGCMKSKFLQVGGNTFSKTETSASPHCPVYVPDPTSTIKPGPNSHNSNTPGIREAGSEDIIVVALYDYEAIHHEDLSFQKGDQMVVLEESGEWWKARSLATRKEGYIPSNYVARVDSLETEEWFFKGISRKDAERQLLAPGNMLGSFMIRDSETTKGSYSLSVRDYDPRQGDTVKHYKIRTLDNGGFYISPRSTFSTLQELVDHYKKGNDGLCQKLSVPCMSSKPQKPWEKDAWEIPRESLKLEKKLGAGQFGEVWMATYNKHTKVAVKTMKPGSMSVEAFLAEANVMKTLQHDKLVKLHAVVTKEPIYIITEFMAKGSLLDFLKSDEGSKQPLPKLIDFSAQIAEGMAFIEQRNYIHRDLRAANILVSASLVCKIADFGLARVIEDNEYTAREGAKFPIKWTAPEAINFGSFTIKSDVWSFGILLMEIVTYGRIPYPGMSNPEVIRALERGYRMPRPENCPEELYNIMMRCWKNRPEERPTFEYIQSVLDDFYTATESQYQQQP
Tyrosine-protein kinase Yes (Homo sapiens), sequence (P07947 2-543 limits assumed): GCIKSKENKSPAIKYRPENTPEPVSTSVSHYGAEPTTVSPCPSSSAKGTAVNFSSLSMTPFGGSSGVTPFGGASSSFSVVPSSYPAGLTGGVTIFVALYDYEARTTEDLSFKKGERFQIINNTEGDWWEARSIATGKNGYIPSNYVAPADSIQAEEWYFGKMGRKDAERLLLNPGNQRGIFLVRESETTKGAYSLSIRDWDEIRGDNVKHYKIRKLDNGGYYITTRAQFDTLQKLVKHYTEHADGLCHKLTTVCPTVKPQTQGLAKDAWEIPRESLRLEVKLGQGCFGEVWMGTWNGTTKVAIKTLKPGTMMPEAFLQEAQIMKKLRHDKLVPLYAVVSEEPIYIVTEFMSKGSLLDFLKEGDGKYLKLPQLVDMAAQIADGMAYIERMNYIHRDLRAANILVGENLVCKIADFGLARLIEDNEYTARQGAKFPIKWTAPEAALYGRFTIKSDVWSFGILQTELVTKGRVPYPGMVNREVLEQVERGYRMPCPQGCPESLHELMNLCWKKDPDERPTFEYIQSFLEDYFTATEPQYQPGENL
Cytochrome P450 3A4, sequence (P08684 whole entry): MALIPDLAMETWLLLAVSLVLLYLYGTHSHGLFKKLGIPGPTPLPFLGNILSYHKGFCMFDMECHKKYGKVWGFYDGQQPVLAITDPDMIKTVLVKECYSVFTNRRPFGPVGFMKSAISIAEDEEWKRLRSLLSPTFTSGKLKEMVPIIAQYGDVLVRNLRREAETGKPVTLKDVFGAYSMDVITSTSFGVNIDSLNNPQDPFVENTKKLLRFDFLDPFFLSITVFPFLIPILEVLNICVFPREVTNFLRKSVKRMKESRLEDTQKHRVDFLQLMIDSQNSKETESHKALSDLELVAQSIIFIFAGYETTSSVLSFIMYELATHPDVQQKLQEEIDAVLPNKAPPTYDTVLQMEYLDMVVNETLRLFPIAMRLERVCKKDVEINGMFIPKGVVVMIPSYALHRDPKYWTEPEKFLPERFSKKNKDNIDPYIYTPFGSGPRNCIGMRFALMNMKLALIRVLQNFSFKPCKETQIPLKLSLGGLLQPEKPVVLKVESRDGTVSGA

One may read the pIC50 as the IC50 on a negative log10 scale, so that one unit is a factor of ten. In turn, `COC(C)(C)CCn1nc(Nc2c(C)cccc2C)c2cnc(Nc3ccc(OCCN4CCCC4)c(F)c3)nc21` showed a pIC50 in data set [1] of 7.70.

As a reminder, the inhibition is the relative decrease from the control value, in per cent. A low value points to little suppression. The Cmax is the highest concentration seen after dosing. One may read the half-life as the time in which the quantity being followed falls by half. A higher half-life goes with slow loss. What is called AUC is the area under the concentration-time curve, a measure of exposure. What is called clearance is the rate of elimination divided by the concentration. The term solubility denotes the concentration that dissolves in the medium under given conditions. High values mean much dissolved substance, low ones little dissolved substance. Take `COc1cc(Oc2ccccc2)ccc1-c1nc([C@H]2C[C@@](C)(O)C2)n2ccnc(N)c12`: the negative-log IC50 (pIC50) in data set [2], in data set [8], in data set [13] and in [26] was < 4.70 each time. Moreover, the inhibition in [3], in data set [5], in data set [7], in data set [9], in data set [10] and in [11] was > 80% throughout. Further, the inhibition in data set [12] was 100%; in data set [15] it was > 80%; in data set [17], > 80%; in [20] it was > 80%; in data set [22], > 80%; in data set [23], > 80%. In addition, the inhibition in [24] was > 80%. This compound registered a maximum concentration (Cmax) in data set [4] of 5.9 µM. Besides, the half-life in data set [6] is 228 min. Besides, the Papp in data set [14] was 280 ×10⁻⁶ cm/s; in data set [27], 591 ×10⁻⁶ cm/s. Besides, the bioavailability in [16] worked out at 98%. For the same compound, in data set [18], the AUC was determined as 8480 ng·h/mL. The Vd in data set [19] is 1.8 L/kg. Besides, the clearance in [21] amounted to 39 mL/min/kg. Moreover, the solubility in data set [25] was > 100 µM.

The compound `c1ccc(-c2c(-c3ccc(OCCN4CCCC4)cc3)[nH]c3ncnc(NCC4SCCS4)c23)cc1` showed a negative-log IC50 (pIC50) in data set [1] of 8.00.

Regarding `Nc1nccn2c(C3CCC3)nc(-c3ccc(Oc4ccccc4)cc3)c12`, the highest level in data set [4] (Cmax) was 0.9 µM. In addition, the half-life in data set [6] is 330 min. In addition, the bioavailability in data set [16] amounted to 50%. Besides, in data set [18], the area under the curve (AUC) was 1240 ng·h/mL. In addition, the Vd in data set [19] was 9 L/kg. Further, the clearance in data set [21] stood at 135 mL/min/kg.

`Nc1nccn2c(C3CCC3)nc(-c3ccc(C(O)c4ccccc4)cc3)c12` (stereo not given): the pIC50 in [28] was 6.55.

In data set [4], `C[C@]1(O)C[C@@H](c2nc(-c3ccc(C(F)(F)c4ccccc4)cc3)c3c(N)nccn32)C1` came in with a Cmax of 5 µM. The half-life in data set [6] is 258 min. This compound came in with a F in [29] of 160%. Also, the AUC in data set [18] is 8540 ng·h/mL. The Vd in data set [19] worked out at 1.7 L/kg. Also, the clearance in data set [21] was 63 mL/min/kg.

In turn, `CC(O)(c1ccccc1)c1ccc(-c2nc([C@H]3C[C@@](C)(O)C3)n3ccnc(N)c23)cc1` (mixture of isomers) showed a Cmax in data set [4] of 4.6 µM. The half-life in [6] is 156 min. For the same compound, the bioavailability in [16] stood at 105%. In data set [18], this compound showed an AUC of 3940 ng·h/mL. Moreover, in data set [19], the Vd worked out at 3.3 L/kg. The compound also gave a clearance in data set [21] of 89 mL/min/kg.

As to `c1ccc(-c2oc3ncnc(NC[C@@H]4CCCO4)c3c2-c2ccccc2)cc1`, the negative logarithm of the IC50 (pIC50) in data set [1] is 6.21.

In turn, `C[C@]1(O)C[C@@H](c2nc(-c3ccc(Oc4ccccc4)cc3)c3c(N)nccn32)C1` registered a Cmax in data set [4] of 11.2 µM. Also, the half-life in data set [6] is 294 min. For the same compound, the bioavailability in data set [16] is 87%. In data set [18], this compound registered an AUC of 4680 ng·h/mL. For the same compound, the Vd in [19] worked out at 1.7 L/kg. Besides, the clearance in data set [21] was found to be 62 mL/min/kg.

Consider `Nc1nccn2c(C3CCC3)nc(-c3ccn(Cc4ccccc4)c(=O)c3)c12`, for which the pIC50 in data set [28] is < 5.00.
